In patent publication US11149135B2, “Application of cyclodextrins (CDS) for remediation of perfluoroalkyl substances (PFASS)” (THE FLORIDA INTERNATIONAL UNIVERSITY BOARD OF TRUSTEES, priority 2017, dated 2021):

How the values were obtained:
[1] = β-CD:legacy PFAS; from Wilson and Verrall, Langmuir; cited from earlier work
[2] = 19F NMR titration, average association constants of PFECAs with β-CD; type: binding; details: for Average association constant with β-CD (1:1): 1:1 β-CD:PFECA (unmarked values are 1:1); for Average association constant with β-CD (1:1) / Average association constant with β-CD (2:1): pH 7; for Average association constant with β-CD (2:1): 2:1 β-CD:PFECA; for Decrease (1:1): decrease of 1:1 β-CD association constant versus legacy PFAS of the same chain length; for Emerging PFAS Kassoc (1:1): β-CD:PFECA, 1:1 (unmarked values taken as 1:1)
Experimental: (§1) ^19F NMR spectroscopy was performed with a 400 MHz Bruker instrument with a quad probe (operating at 376.498 MHz for 19F). Hexafluorobenzene was used as the internal standard with a chemical shift of −164.9 ppm. For the titration experiments, the chemical shift of each peak was recorded, and the 1:1 and 2:1 association constants were calculated in GraphPad Prism and Mathworks Matlab by Ramos Cabrer et al.'s, Langmuir 1999, 15, 5489-5495 method.
(§2) The ^19F NMR spectrum of each PFECA was monitored as a function of CD concentration. The individual CD:PFECA association constants were determined via nonlinear least-squares regression analysis of the change in observed chemical shift. The association constants determined for individual fluorines were then averaged to find the average association constant for each PFECA with each CD.

[3] = 19F NMR titration, average association constants of PFECAs with γ-CD; type: binding; parameters: key: *: no significant association; details: 50% D2O/50% H2O, pH 7; averaged over individual fluorines
Experimental: as §1, §2

[4] = 19F NMR titration, average association constants of PFECAs with α-CD; type: binding; parameters: key: *: no significant association; details: 50% D2O/50% H2O, pH 7; averaged over individual fluorines
Experimental: as §1, §2

[5] = 19F NMR β-CD:PFOA association constants in the presence and absence of HSA; type: binding
Excerpt: The capacity or remediation in a human host as a therapeutic application is illustrated by the competitive binding between Human Serum Albumin (HSA) and β-CD for PFOA. Different spectroscopic techniques were employed to understand the interactions between HSA, PFOA, and β-CD. The association between PFOA and β-CD in the presence of HSA in water was characterized using ^19F NMR experiments. Changes in the ^19F chemical shift of PFOA titrated with β-CD were monitored to compare the host-guest association in the presence and absence of 35 μM HSA. The observed change in chemical shift of each fluorine peak varied differently as a function of β-CD concentration. […] The association constants for fluorine atoms closer to the PFOA carboxylate head group with β-CD are weaker in the presence of HSA, whereas the fluorine atoms towards the end of the alkyl chain (tail) experience a stronger interaction with β-CD in the presence of HSA. The 1:1 β-CD:PFOA association constant decreases in the presence of HSA likely due to the interaction of the carboxylate group of PFOA with HSA that weakens the PFOA association to β-CD.
NMR experiments were performed with a 400 MHz Bruker instrument with a quad probe (operating at 376.498 MHz for ^19F). Hexafluorobenzene was used as the internal standard with a chemical shift of −164.9 ppm.

[6] = 19F NMR association constants of β-CD:legacy PFAS complexes; type: binding; details: aqueous media, room temperature
Experimental: A detailed comprehensive Nuclear Magnetic Resonance (NMR) spectral study of the complexation of PFASs to β-CD was conducted, Weiss-Errico and O'Shea, J. Hazardous Mat. 2017 329, 57-65, with highlights herein. […] Competition studies with adamantane-carboxylic acid and phenol confirmed the persistence of the β-CD:PFAS complex. The aqueous solution pH, ionic strength, and the presence of humic acid have only a modest influence on the β-CD:PFAS complexes. Table 2 gives the association constants for β-CD complexes with a sample of the PFASs studied, including perfluoroheptanoic acid (PFHpA), perfluorooctanoic acid (PFOA), perfluorononanoic acid (PFNA), perfluorooctane sulfonate (PFOS), and perfluorooctanesulfonamide (PFOSA).

[7] = system: zebrafish (Danio rerio) embryo; experiment: Zebrafish embryo toxicity assay; type: in vivo
Excerpt: To assess the potential of β-CD to attenuate the developmental and lethal effects of PFOA, zebrafish (Danio rerio) embryo are used as a toxicological model. Practical advantages of the zebrafish embryo system include ease of rearing and a high fecundity, as well as small (˜1 mm) and nearly transparent embryos, rapid (≤5-7 day) embryo development, and a fully sequenced genome. As such, the zebrafish embryo has been employed to look at a wide range of environmental contaminants in terms of acute and chronic toxicity. Acute toxicological endpoints (e.g., embryotoxicity, teratogenicity, neurotoxicity) which are readily accessible in the zebrafish embryo model are, furthermore, aligned with the reported health concerns associated with PFOA, and the system has, indeed, been used to evaluate toxicity of PFOA and related perfluorinated alkyl substances.
Perfluorooctanoic acid (PFOA, 96% purity) was purchased from Sigma-Aldrich. β-Cyclodextrin (β-CD, 98% purity) was purchased from Acros Organics. Both chemicals were used without further purification. Stock solutions of PFOA (7.25 mM, i.e., 3000 parts-per-million [ppm]), 1:1 β-CD:PFOA (β-CD: 7.25 mM, PFOA: 7.25 mM), and 2:1 β-CD:PFOA (β-CD: 14.50 mM, PFOA: 7.25 mM) were prepared with deionized water in polypropylene tubes. The solutions were sonicated until dissolution of the solids was achieved. A control solution of deionized water was also stored in a polypropylene tube. Stock solutions were subsequently diluted over a relevant range of concentrations for assessment of zebrafish embryo toxicity.
Adult zebrafish were maintained in 30-L tanks at 28° C. with 14 h:10 h light/dark cycle, and bred (from approximately 10-30 individuals) above 10-L tanks in mesh enclosures. Eggs were collected (from the bottom of tanks) within 1 h of the end of the dark cycle, and following collection and washing, transferred to plates containing E3 medium. Eggs containing dead, or obviously poor quality embryos, were removed. The remaining embryos were used, within ˜2 hour post-fertilization (hpf), for toxicity assays.
Zebrafish Embryo Toxicity Assay Assays were conducted in polypropylene 24-well plates (Evergreen Scientific, Los Angeles, Calif.) with five embryos (4- to 32-cell stage) per replicate, i.e., well (n=4), in E3 medium for a total of 20 zebrafish embryos per treatment/concentration. Embryos were exposed to a range of PFOA concentrations (30, 50, 100, 150, 200, 250 and 300 ppm) alone, and in 1:1 and 2:1 ratios with β-CD, and subsequently observed at 1, 2, 3, 4 and 7 days post-fertilization (dpf) with a dissecting light microscope to assess mortality and relevant developmental toxicity. Exposures and assessments were repeated several times, in preliminary studies, to determine relevant concentration levels for PFOA, and generally confirm results. Lethality was calculated as the concentration corresponding to 50% mortality (LC50); the LC50 values, and their 95% confidence intervals, were calculated via Probit Analysis in SPSS. In addition to lethality, inhibition of embryo development was morphometrically assessed based on the interocular distance between eyes (as a proxy for body size) of 7 dpf embryos (i.e., eleuthero-embryo stage) as measured using Olympus DP2-BSW imaging software. Apparent neurobehavioral effects were additionally measured as the percent of 7-dpf eleuthero-embryos displaying listing (i.e., falling to one side) behavior within a 30 s period (with shaking between each measurement to allow embryos to right themselves). Statistical Analyses
One-way analysis of variance (ANOVA) of the LC50 values, as well as the interocular distance and percent listing at 7 dpf, was performed in GraphPad Prism. The significance level was set at p=0.05.

[8] = Control experiments: interaction of internal standard with cyclodextrins; details: 1.44×10−3 M
Experimental: The solution consisted of 50% D2O and 50% DI H2O, adjusted to pH 7 with 0.036 M NaOH. […] Each cyclodextrin (α-, β-, γ-) was added at various stoichiometric ratios and the solution was sonicated until dissolution of the CD was achieved.

[9] = target: Human Serum Albumin (HSA) (Homo sapiens, UniProt P02768); experiment: HSA fluorescence (steady state and lifetime): reversal of PFOA binding by β-CD
Chain of Human Serum Albumin (HSA) (P02768 25-609): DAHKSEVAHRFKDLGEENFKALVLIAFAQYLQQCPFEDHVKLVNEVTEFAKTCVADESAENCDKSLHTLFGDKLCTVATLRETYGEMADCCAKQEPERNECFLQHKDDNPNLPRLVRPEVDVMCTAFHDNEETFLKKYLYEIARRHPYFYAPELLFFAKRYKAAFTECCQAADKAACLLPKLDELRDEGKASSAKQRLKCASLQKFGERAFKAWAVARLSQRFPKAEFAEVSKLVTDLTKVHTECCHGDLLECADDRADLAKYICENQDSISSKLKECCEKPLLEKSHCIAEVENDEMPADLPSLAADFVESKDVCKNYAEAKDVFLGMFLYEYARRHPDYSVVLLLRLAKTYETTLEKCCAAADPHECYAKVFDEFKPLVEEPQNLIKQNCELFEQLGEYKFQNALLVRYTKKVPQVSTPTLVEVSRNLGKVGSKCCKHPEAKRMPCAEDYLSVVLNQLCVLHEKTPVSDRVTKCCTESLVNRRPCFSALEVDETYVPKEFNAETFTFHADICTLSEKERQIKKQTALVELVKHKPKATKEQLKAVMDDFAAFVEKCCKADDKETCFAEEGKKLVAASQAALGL
Experimental: For the fluorescence spectroscopy experiments, stock solutions of PFOA (10 mM and 100 μM), β-CD (5 mM), and HSA (20 μM) were prepared with a 50 mM sodium phosphate buffer (pH 7.4) solution in polypropylene tubes
Steady state emission experiments were performed with a PC1 Fluorometer (ISS Inc, Champaign, Ill.). The excitation wavelength was 295 nm, and the emission spectra were recorded between 305 and 440 nm using 1 nm slit width for both excitation and emission. The emission spectra were corrected for the inner filter effect; however, the inner filter effect was insignificant at the HSA concentrations used in this study. Fluorescence lifetime experiments (frequency-resolved) were performed with a ChronoFD Fluorometer (ISS Inc, Champaign, Ill.). The excitation wavelength was 280 nm and 2,5-diphenyloxazole (PPO) was used as a lifetime reference. For both steady state and fluorescence lifetime experiments, the concentration of HSA was 10 βM. PFOA and β-CD were titrated into the sample at various concentrations.

[10] = 50 mM Phosphate Buffer (pH 7.4)
[11] = 50 mM Phosphate Buffer (pH 7.4) with 35 μM HSA

## O=C(O)C(F)(F)C(F)(F)C(F)(F)C(F)(F)C(F)(F)F [PFHxA, perfluorohexanoic acid]
[1]
  Legacy PFAS Kassoc: 2.35 +/− 0.46 × 10^4 M^−1

## O=C(O)C(F)(F)OC(F)(F)C(F)(F)OC(F)(F)C(F)(F)OC(F)(F)F [PFO3DA, perfluoro(3,6,9-trioxadecanoic) acid]
[2]
  Average association constant with β-CD (1:1): 3.03 +/− 1.09 × 10^3 M^−1
  Average association constant with β-CD (2:1): 4.12 +/− 1.08 × 10^3 M^−1
  Decrease (1:1): ~100
  Emerging PFAS Kassoc (1:1): 3.03 +/− 1.09 × 10^3 (1:1) M^−1
[3]
  Average association constant with γ-CD: 7.60 +/− 2.10 × 10^2 M^−1
[4]
  Average association constant with α-CD: 9.28 +/− 2.80 × 10^1 M^−1

## O=C(O)C(F)(F)OC(F)(F)C(F)(F)OC(F)(F)C(F)(F)OC(F)(F)C(F)(F)C(F)(F)C(F)(F)F [PFO3TDA, perfluoro-(3,6,9-trioxatridecanoic) acid]
[2]
  Average association constant with β-CD (1:1): 5.93 +/− 1.20 × 10^5 M^−1
  Average association constant with β-CD (2:1): 1.36 +/− 0.28 × 10^5 M^−1
[3]
  Average association constant with γ-CD: 3.48 +/− 1.50 × 10^3 M^−1
[4]
  Average association constant with α-CD: *

## O=C(O)C(F)(F)C(F)(F)C(F)(F)C(F)(F)C(F)(F)C(F)(F)C(F)(F)F [PFOA, perfluorooctanoic acid]
[5]; [10]
  K1:1 β-CD:PFOA: 4.16 ± 0.88 × 10^5 M^−1
  K2:1 β-CD:PFOA: 6.42 ± 1.78 × 10^2 M^−1
[5]; [11]
  K1:1 β-CD:PFOA: 1.67 ± 0.33 × 10^5 M^−1
  K2:1 β-CD:PFOA: 9.09 ± 1.27 × 10^2 M^−1
[6]; 1:1 β-CD:PFAS complex
  K1:1 association constant: 5.00 ± 0.10 × 10^5 M^−1
[6]; 2:1 β-CD:PFAS complex
  K2:1 association constant: 1.20 ± 0.50 × 10^3 M^−1
[7]; 1 dpf, ppm PFOA
  LC50: 47.3±3.6 ppm
[7]; 7 dpf, surviving embryos at sub-lethal concentrations ≤50 ppm PFOA, pooled
  interocular distance: 0.25±0.06 mm
[7]; 7 dpf, ≤50 ppm PFOA, pooled
  percent of surviving embryos listing within a 30 second period: 96±9%
[7]; PFOA concentrations above 100 ppm
  lethality at 24 hpf: all embryos dead
[7]; by 7 dpf, bent spines and edemas
  embryos showing discernible deformities: ~5%
[7]; surviving embryos, hatched by 3 dpf
  hatching rates: unaffected

## O=C(O)C(F)(OC(F)(F)C(F)(F)C(F)(F)F)C(F)(F)F (stereo not shown) [PFPrOPrA, Perfluoro(2-methyl-3-oxahexanoic) acid]
[2]; 1:1 β-CD:PFECA
  association constant with β-CD: 745 M⁻¹
[2]
  Average association constant with β-CD (1:1): 7.45 +/− 4.27 × 10^2 M^−1
  Decrease (1:1): ~100
  Emerging PFAS Kassoc (1:1): 7.45 +/− 4.27 × 10^2 M^−1
[3]
  Average association constant with γ-CD: *
[4]
  Average association constant with α-CD: 2.36 +/− 1.10 × 10^2 M^−1

## Fc1c(F)c(F)c(F)c(F)c1F [hexafluorobenzene, Hexafluorobenzene]
[8]
  interaction with cyclodextrins: does not significantly interact with cyclodextrins

## OC[C@H]1O[C@@H]2O[C@H]3[C@H](O)[C@@H](O)[C@@H](O[C@H]4[C@H](O)[C@@H](O)[C@@H](O[C@H]5[C@H](O)[C@@H](O)[C@@H](O[C@H]6[C@H](O)[C@@H](O)[C@@H](O[C@H]7[C@H](O)[C@@H](O)[C@@H](O[C@H]8[C@H](O)[C@@H](O)[C@@H](O[C@H]1[C@H](O)[C@H]2O)O[C@@H]8CO)O[C@@H]7CO)O[C@@H]6CO)O[C@@H]5CO)O[C@@H]4CO)O[C@@H]3CO [β-CD, β-Cyclodextrin]
[9]; 10 μM HSA titrated with PFOA, 1:1 and 2:1 β-CD:PFOA ratios
  effect on PFOA binding to HSA, steady state fluorescence: cannot completely reverse the first PFOA binding to HSA
[9]; 10 μM HSA, 500 μM PFOA, 5:1 β-CD:PFOA ratio (2500 μM β-CD)
  fluorescence intensity and λmax of HSA with PFOA: return to the values observed for HSA in the absence of PFOA
[9]; 10 μM HSA, 50:1 PFOA:HSA, 5:1 β-CD:PFOA ratio
  fluorescence lifetime τ and α values of HSA with PFOA: identical to those determined for HSA in the absence of PFOA
[7]; tested range up to maximum concentration 1645 ppm (1.45 mM) β-CD
  toxicity of β-CD alone: No discernible toxicity
